Laboratory results from patent publication US20140371074A1, “METHOD TO INCREASE PLANT YIELD” (priority 2012, published 2014).

Experiments:
Type in all cases: in vivo
[1] = system: soybean Latham 2767 Roundup Ready; experiment: Field: seed treatment with 2,4-D solution 1X-10X, Laurel, Iowa (Table 6); conditions: 1X~0.0002968 lb a.e.
Method: Previously untreated soybean seeds were treated with between 1X to 10X of 2,4-D solution, where 1X is equivalent to approximately 0.0002968 pounds acid equivalent of 2,4-D. The seed variety was Latham 2767 Roundup Ready seeds and seeds were planted in Laurel, Iowa with a row width of 30 inches. Plants were sprayed with foliar insecticide and fungicide.

[2] = system: Soybean variety Latham EX32124 CystX; experiment: Greenhouse: 2,4-D LV4 drizzled onto soil of potted plants, pod and node counts; conditions: for Average pods per normal node / Megacluster nodes / Normal nodes / Total nodes with pods / Pods on megacluster nodes / Pods on normal nodes / Average pods per megacluster node: 2 plants/pot; for Pods on megacluster nodes / Pods on normal nodes / Total pods per pot (2 plants): immature pods
Method: Soybean variety ‘Latham EX32124 CystX’ was planted in 8.5 inch diameter pots and grown under lights in a greenhouse. Four seeds each were planted and later thinned to 2 plants per plot for each of 5 treatment rates of 0.47, 0.94, 1.88, 3.76, and 7.52 pounds a.e. of 2,4-D per acre. […] When the soybean plants were at the stage of growth in which pods are 3/16 inch length at one of the two uppermost nodes, the number of beginning pods was observed.
At this stage, household fertilizer was added to the plants along with water, and the number of nodes and pods was observed approximately ten days later, as shown in Table 3. Pod counts were for 2 plants per pot.

[3] = system: soybean variety Asgrow 2933; experiment: Field: side dress with 2,4-D Low Vol 4 solution, Laurel, Iowa (Table 3); conditions: for Percent of control: yield vs untreated control
Method: Plants were grown from Roundup Ready variety Asgrow 2933 seed that was treated with accelron (Monsanto) prior to planting. Plants were side dressed by application with a 3-point cultivator modified to spray on the ground in front of the shanks, the shanks then mix the 2,4-D mixture with the soil and move the mixture closer to the plant roots. Plants were treated with between 1X and 4X of 2,4-D Low Vol 4 solution, where 1X is equivalent to approximately 0.19 pounds acid equivalent of 2,4-D. Plants were grown with a row width of 30 inches and row length of 562 feet.

[4] = 1X side dress (1X~0.19 lb a.e.)
[5] = 2X side dress (1X~0.19 lb a.e.)
[6] = 3X side dress (1X~0.19 lb a.e.)
[7] = 4X side dress (1X~0.19 lb a.e.)

## O=C(O)COc1ccc(Cl)cc1Cl [2,4-D, 2,4-Dichlorophenoxyacetic acid]
[1]; 1X seed treatment
  Harvested weight: 125 g
  Yield (Bushels/acre at 13% moisture): 60.71 Bushels/acre
[1]; 2X seed treatment
  Harvested weight: 90 g
  Yield (Bushels/acre at 13% moisture): 42.26 Bushels/acre
[1]; 3X seed treatment
  Harvested weight: 100 g
  Yield (Bushels/acre at 13% moisture): 45.23 Bushels/acre
[1]; 4X seed treatment
  Harvested weight: 100 g
  Yield (Bushels/acre at 13% moisture): 44.23 Bushels/acre
[1]; 5X seed treatment
  Harvested weight: 105 g
  Yield (Bushels/acre at 13% moisture): 45.33 Bushels/acre
[1]; 6X seed treatment
  Harvested weight: 110 g
  Yield (Bushels/acre at 13% moisture): 48.22 Bushels/acre
[1]; 7X seed treatment
  Harvested weight: 105 g
  Yield (Bushels/acre at 13% moisture): 44.36 Bushels/acre
[1]; 8X seed treatment
  Harvested weight: 110 g
  Yield (Bushels/acre at 13% moisture): 46.32 Bushels/acre
[1]; 9X seed treatment
  Harvested weight: 100 g
  Yield (Bushels/acre at 13% moisture): 43.06 Bushels/acre
[1]; 10X seed treatment
  Harvested weight: 95 g
  Yield (Bushels/acre at 13% moisture): 42.12 Bushels/acre
[2]; 0.47 lbs a.e. per acre
  Beginning pods: Normal
[2]; 0.47 lbs a.e.
  Average pods per normal node: 3.9
  Megacluster nodes: 0
  Normal nodes: 7
  Total nodes with pods: 7
  Pods on megacluster nodes: 0
  Pods on normal nodes: 27
  Total pods per pot (2 plants): 27
[2]; 0.94 lbs a.e. per acre
  Beginning pods: huge clusters of pods (megaclusters)
[2]; 0.94 lbs a.e.
  Average pods per megacluster node: 12.5
  Average pods per normal node: 3.6
  Megacluster nodes: 6
  Normal nodes: 5
  Total nodes with pods: 11
  Pods on megacluster nodes: 75
  Pods on normal nodes: 18
  Total pods per pot (2 plants): 93
[2]; 0.94 pounds a.e. of 2,4-D
  number of pods versus untreated plants: over double the number of pods
[2]; 1.88, 3.76, and 7.52 pounds a.e. of 2,4-D per acre
  total number of pods per plant compared to the control: increased total number of pods per plant
[2]; 1.88 lbs a.e. per acre
  Beginning pods: huge clusters of pods (megaclusters)
[2]; 1.88 lbs a.e.
  Average pods per megacluster node: 6.0
  Average pods per normal node: 3.4
  Megacluster nodes: 5
  Normal nodes: 5
  Total nodes with pods: 10
  Pods on megacluster nodes: 30
  Pods on normal nodes: 17
  Total pods per pot (2 plants): 49
[2]; 3.76 lbs a.e. per acre
  Beginning pods: Normal
[2]; 3.76 lbs a.e.
  Average pods per megacluster node: 9.0
  Average pods per normal node: 4.8
  Megacluster nodes: 3
  Normal nodes: 5
  Total nodes with pods: 8
  Pods on megacluster nodes: 27
  Pods on normal nodes: 24
  Total pods per pot (2 plants): 51
[2]; 7.52 lbs a.e. per acre
  Beginning pods: Normal
[2]; 7.52 lbs a.e.
  Average pods per megacluster node: 9.0
  Average pods per normal node: 3.6
  Megacluster nodes: 2
  Normal nodes: 7
  Total nodes with pods: 9
  Pods on megacluster nodes: 18
  Pods on normal nodes: 25
  Total pods per pot (2 plants): 43
[2]; 7.52 pounds a.e. rate
  leaf damage: some yellowing of leaves
[2]; between 0.47 and 7.52 pounds a.e. of 2,4-D per acre
  pod set: excessive numbers of pods at every node
[2]; treated plants, 0.47-7.52 pounds a.e. per acre
  mature slower and stay greener, longer than untreated plants: approximately 2 weeks
[3]; [4]
  Yield (Bushels/acre at 13% moisture): 58.3 Bushels/acre
  Percent of control: 110%
[3]; 1X side dress (1X~0.19 lb a.e.), 12 rows
  Harvested weight: 1292 g
[3]; [5]
  Yield (Bushels/acre at 13% moisture): 68.3 Bushels/acre
  Percent of control: 130%
[3]; 2X side dress (1X~0.19 lb a.e.), 8 rows
  Harvested weight: 1016 g
[3]; [6]
  Yield (Bushels/acre at 13% moisture): 62.8 Bushels/acre
  Percent of control: 120%
[3]; 3X side dress (1X~0.19 lb a.e.), 16 rows
  Harvested weight: 1844 g
[3]; [7]
  Yield (Bushels/acre at 13% moisture): 70.8 Bushels/acre
  Percent of control: 135%
[3]; 4X side dress (1X~0.19 lb a.e.), 16 rows
  Harvested weight: 2088 g
[3]; side dress treatment 1X-4X vs untreated
  plant yield (in words): greatly increases plant yield
